From ChEMBL document CHEMBL3885861, “Open TG-GATES”

Species: Rattus norvegicus
Assay: Open TG-GATES - Regimen: Single
Type: toxicity, organism-based, Sprague-Dawley
Design: regimen Single, gender Male, age 6 weeks
Settings: in vivo, po, route gavage; for APTT / Bas / Eos / Fbg / Hb / Ht / Lym / MCH / MCHC / MCV / Mono / Neu / PT / Plat / RBC / Ret / WBC: tissue Blood; for KIDNEY_L / KIDNEY_R / KIDNEY_TOTAL: tissue Kidney; for LIVER: tissue Liver; for A/G / ALP / ALT / AST / BUN / CRE / Ca / Cl / DBIL / GLC / IP / K / LDH / Na / PL / RALB / TBIL / TC / TG / TP / gamma-GTP: tissue Plasma
[1] = 100 mg/kg, 3 h, dose level Middle
[2] = 100 mg/kg, 6 h, dose level Middle
[3] = 100 mg/kg, 9 h, dose level Middle
[4] = 100 mg/kg, 24 h, dose level Middle
[5] = 300 mg/kg, 3 h, dose level High
[6] = 300 mg/kg, 6 h, dose level High
[7] = 300 mg/kg, 9 h, dose level High
[8] = 300 mg/kg, 24 h, dose level High

## ClC(Cl)(Cl)Cl [CARBON TETRACHLORIDE]
[1]
  TERMINAL_BW: 207.5 g
  APTT: 20.3 s
  Bas: 0%
  Eos: 1%
  Fbg: 222.4 mg/dL
  Hb: 12.7 g/dL
  Ht: 36.6%
  Lym: 76.4%
  MCH: 21.8 pg
  MCHC: 34.8%
  MCV: 62.7 fL
  Mono: 2.8%
  Neu: 19.8%
  PT: 12.6 s
  Plat: 129.7 x10_4/uL
  RBC: 583.2 x10_4/ul
  Ret: 8.7%
  WBC: 76.6 x10_2/uL
  KIDNEY_L: 0.9 g
  KIDNEY_R: 0.9 g
  KIDNEY_TOTAL: 1.8 g
  LIVER: 9.4 g
  A/G: 1.7
  ALP: 1077.4 IU/L
  ALT: 36.2 IU/L
  AST: 70 IU/L
  BUN: 10.2 mg/dL
  CRE: 0.4 mg/dL
  Ca: 10.8 mg/dL
  Cl: 104.6 meq/L
  DBIL: 0.1 mg/dL
  GLC: 186.4 mg/dL
  IP: 9.4 mg/dL
  K: 3.9 meq/L
  LDH: 156 IU/L
  Na: 140.2 meq/L
  PL: 148.6 mg/dL
  RALB: 3.4 g/dL
  TBIL: 0.2 mg/dL
  TC: 73.6 mg/dL
  TG: 103.8 mg/dL
  TP: 5.4 g/dL
  gamma-GTP: 1.2 IU/L
[2]
  TERMINAL_BW: 204.2 g
  APTT: 18 s
  Bas: 0%
  Eos: 1%
  Fbg: 224.8 mg/dL
  Hb: 13.3 g/dL
  Ht: 38.1%
  Lym: 71.2%
  MCH: 21.8 pg
  MCHC: 35%
  MCV: 62.4 fL
  Mono: 3%
  Neu: 24.8%
  PT: 12.7 s
  Plat: 134.8 x10_4/uL
  RBC: 611 x10_4/ul
  Ret: 8.8%
  WBC: 76 x10_2/uL
  KIDNEY_L: 0.9 g
  KIDNEY_R: 0.9 g
  KIDNEY_TOTAL: 1.8 g
  LIVER: 9 g
  A/G: 1.8
  ALP: 913.2 IU/L
  ALT: 35 IU/L
  AST: 65.6 IU/L
  BUN: 11.4 mg/dL
  CRE: 0.4 mg/dL
  Ca: 10.5 mg/dL
  Cl: 104 meq/L
  DBIL: 0.1 mg/dL
  GLC: 190.2 mg/dL
  IP: 10.2 mg/dL
  K: 3.9 meq/L
  LDH: 164.6 IU/L
  Na: 140.2 meq/L
  PL: 154.4 mg/dL
  RALB: 3.5 g/dL
  TBIL: 0.2 mg/dL
  TC: 78.8 mg/dL
  TG: 67.2 mg/dL
  TP: 5.4 g/dL
  gamma-GTP: 1.4 IU/L
[3]
  TERMINAL_BW: 205.2 g
  APTT: 18.5 s
  Bas: 0%
  Eos: 0.8%
  Fbg: 229.8 mg/dL
  Hb: 12.9 g/dL
  Ht: 37%
  Lym: 74.2%
  MCH: 21.2 pg
  MCHC: 34.8%
  MCV: 60.8 fL
  Mono: 3%
  Neu: 21.8%
  PT: 12.5 s
  Plat: 125.2 x10_4/uL
  RBC: 610.4 x10_4/ul
  Ret: 8%
  WBC: 72.7 x10_2/uL
  KIDNEY_L: 0.9 g
  KIDNEY_R: 0.9 g
  KIDNEY_TOTAL: 1.8 g
  LIVER: 8.4 g
  A/G: 1.6
  ALP: 848.2 IU/L
  ALT: 28.2 IU/L
  AST: 62.4 IU/L
  BUN: 11.4 mg/dL
  CRE: 0.4 mg/dL
  Ca: 10.5 mg/dL
  Cl: 103.6 meq/L
  DBIL: 0.1 mg/dL
  GLC: 196 mg/dL
  IP: 10.3 mg/dL
  K: 3.7 meq/L
  LDH: 173.2 IU/L
  Na: 140.4 meq/L
  PL: 141.2 mg/dL
  RALB: 3.3 g/dL
  TBIL: 0.2 mg/dL
  TC: 66.6 mg/dL
  TG: 65 mg/dL
  TP: 5.5 g/dL
  gamma-GTP: 0.8 IU/L
[4]
  TERMINAL_BW: 210.9 g
  APTT: 18.9 s
  Bas: 0%
  Eos: 1%
  Fbg: 229.8 mg/dL
  Hb: 13.6 g/dL
  Ht: 39.4%
  Lym: 79.4%
  MCH: 21.8 pg
  MCHC: 34.5%
  MCV: 63 fL
  Mono: 3.4%
  Neu: 15.8%
  PT: 12.6 s
  Plat: 126.7 x10_4/uL
  RBC: 625.2 x10_4/ul
  Ret: 8.6%
  WBC: 98.1 x10_2/uL
  KIDNEY_L: 0.9 g
  KIDNEY_R: 0.9 g
  KIDNEY_TOTAL: 1.8 g
  LIVER: 10.1 g
  A/G: 1.7
  ALP: 987 IU/L
  ALT: 38.2 IU/L
  AST: 70.2 IU/L
  BUN: 16.8 mg/dL
  CRE: 0.4 mg/dL
  Ca: 10.8 mg/dL
  Cl: 104.4 meq/L
  DBIL: 0.082 mg/dL
  GLC: 189.4 mg/dL
  IP: 8.1 mg/dL
  K: 4.1 meq/L
  LDH: 280 IU/L
  Na: 140.4 meq/L
  PL: 148.2 mg/dL
  RALB: 3.5 g/dL
  TBIL: 0.1 mg/dL
  TC: 70.4 mg/dL
  TG: 78 mg/dL
  TP: 5.6 g/dL
  gamma-GTP: 1 IU/L
[5]
  TERMINAL_BW: 206.7 g
  APTT: 18.3 s
  Bas: 0%
  Eos: 1%
  Fbg: 242 mg/dL
  Hb: 13 g/dL
  Ht: 37.2%
  Lym: 74.4%
  MCH: 21.8 pg
  MCHC: 34.9%
  MCV: 62.4 fL
  Mono: 2.2%
  Neu: 21.8%
  PT: 12.5 s
  Plat: 125.5 x10_4/uL
  RBC: 595.8 x10_4/ul
  Ret: 8.9%
  WBC: 76.7 x10_2/uL
  KIDNEY_L: 0.9 g
  KIDNEY_R: 0.9 g
  KIDNEY_TOTAL: 1.8 g
  LIVER: 9.4 g
  A/G: 1.6
  ALP: 909.4 IU/L
  ALT: 39.4 IU/L
  AST: 67.8 IU/L
  BUN: 12.2 mg/dL
  CRE: 0.4 mg/dL
  Ca: 10.5 mg/dL
  Cl: 104 meq/L
  DBIL: 0.1 mg/dL
  GLC: 187.4 mg/dL
  IP: 10.1 mg/dL
  K: 3.8 meq/L
  LDH: 201.4 IU/L
  Na: 140 meq/L
  PL: 156.4 mg/dL
  RALB: 3.3 g/dL
  TBIL: 0.2 mg/dL
  TC: 79.2 mg/dL
  TG: 90.8 mg/dL
  TP: 5.4 g/dL
  gamma-GTP: 1.2 IU/L
[6]
  TERMINAL_BW: 208.2 g
  APTT: 18.5 s
  Bas: 0%
  Eos: 0.8%
  Fbg: 231.4 mg/dL
  Hb: 13.1 g/dL
  Ht: 37.9%
  Lym: 77.2%
  MCH: 21.3 pg
  MCHC: 34.6%
  MCV: 61.7 fL
  Mono: 3%
  Neu: 18.4%
  PT: 13 s
  Plat: 125.2 x10_4/uL
  RBC: 614.2 x10_4/ul
  Ret: 8.6%
  WBC: 96.7 x10_2/uL
  KIDNEY_L: 0.9 g
  KIDNEY_R: 0.9 g
  KIDNEY_TOTAL: 1.8 g
  LIVER: 9.1 g
  A/G: 1.7
  ALP: 830.8 IU/L
  ALT: 29.8 IU/L
  AST: 65.2 IU/L
  BUN: 10.4 mg/dL
  CRE: 0.4 mg/dL
  Ca: 10.5 mg/dL
  Cl: 103.2 meq/L
  DBIL: 0.086 mg/dL
  GLC: 201.8 mg/dL
  IP: 10.1 mg/dL
  K: 4 meq/L
  LDH: 205.8 IU/L
  Na: 139.6 meq/L
  PL: 150.4 mg/dL
  RALB: 3.4 g/dL
  TBIL: 0.1 mg/dL
  TC: 73 mg/dL
  TG: 68.2 mg/dL
  TP: 5.5 g/dL
  gamma-GTP: 1.2 IU/L
[7]
  TERMINAL_BW: 203.7 g
  APTT: 19.1 s
  Bas: 0%
  Eos: 1%
  Fbg: 232.6 mg/dL
  Hb: 13.3 g/dL
  Ht: 37.9%
  Lym: 80.4%
  MCH: 21.5 pg
  MCHC: 35%
  MCV: 61.7 fL
  Mono: 2.8%
  Neu: 16%
  PT: 12.5 s
  Plat: 137.8 x10_4/uL
  RBC: 615.2 x10_4/ul
  Ret: 8.7%
  WBC: 72.4 x10_2/uL
  KIDNEY_L: 0.9 g
  KIDNEY_R: 0.9 g
  KIDNEY_TOTAL: 1.8 g
  LIVER: 8.8 g
  A/G: 1.5
  ALP: 987.6 IU/L
  ALT: 28.4 IU/L
  AST: 63.2 IU/L
  BUN: 9.4 mg/dL
  CRE: 0.4 mg/dL
  Ca: 10.5 mg/dL
  Cl: 103 meq/L
  DBIL: 0.1 mg/dL
  GLC: 193 mg/dL
  IP: 10.4 mg/dL
  K: 3.9 meq/L
  LDH: 200.2 IU/L
  Na: 139.4 meq/L
  PL: 150.8 mg/dL
  RALB: 3.3 g/dL
  TBIL: 0.2 mg/dL
  TC: 71 mg/dL
  TG: 80.2 mg/dL
  TP: 5.5 g/dL
  gamma-GTP: 1.2 IU/L
[8]
  TERMINAL_BW: 212.9 g
  APTT: 19.3 s
  Bas: 0%
  Eos: 1%
  Fbg: 225.4 mg/dL
  Hb: 13.5 g/dL
  Ht: 38.6%
  Lym: 79%
  MCH: 22.4 pg
  MCHC: 34.8%
  MCV: 64.4 fL
  Mono: 3.8%
  Neu: 15.6%
  PT: 12.6 s
  Plat: 131.5 x10_4/uL
  RBC: 599.6 x10_4/ul
  Ret: 7.8%
  WBC: 110.3 x10_2/uL
  KIDNEY_L: 1 g
  KIDNEY_R: 1 g
  KIDNEY_TOTAL: 2 g
  LIVER: 10.2 g
  A/G: 1.6
  ALP: 1310.2 IU/L
  ALT: 42.2 IU/L
  AST: 75 IU/L
  BUN: 16.4 mg/dL
  CRE: 0.4 mg/dL
  Ca: 10.8 mg/dL
  Cl: 103.8 meq/L
  DBIL: 0.08 mg/dL
  GLC: 183.8 mg/dL
  IP: 8 mg/dL
  K: 3.9 meq/L
  LDH: 192.6 IU/L
  Na: 140 meq/L
  PL: 139.6 mg/dL
  RALB: 3.5 g/dL
  TBIL: 0.1 mg/dL
  TC: 61.4 mg/dL
  TG: 69.6 mg/dL
  TP: 5.6 g/dL
  gamma-GTP: 1 IU/L
